Data: patent publication US5959130A, “Castor based benzoate esters” (Finetex, Inc., priority 1997, dated 1999)
Like-named read-outs stand apart in the source and are kept apart here.

How the values were obtained:
[1] = Hagman readings (particle size), Red No. 6 Barium Lake dispersion, Table VI A; assay type: physicochemical; details: Red No. 6 Barium Lake 35%
Experimental: (§1) The novel benzoate esters of the invention were tested for pigment and dye dispersing efficacy. Color pastes were prepared by dispersing dry pigment into the oil phase while hand stirring and then passing each mixture through a three roll mill six times, collecting a 16 oz. sample after each pass. The samples collected were subjected to particle size measurements.

[2] = Hagman readings (particle size), titanium dioxide dispersion, Table VI A; assay type: physicochemical; details: for Hagman reading (particle size): TiO2 50%
Experimental: as §1

[3] = sunscreen solubility: PARSOL 1789, Table IV B; assay type: physicochemical
Text: (§2) These two sunscreens are difficult to dissolve and keep in solution for use in sunscreen formulations for optimal SPF (sun-protection factors). Higher solvency for a sunscreen ingredient is desirable as it allows higher concentrations of the sunscreen active ingredient in a formulation. This advantageously raises the SPF ratings for the formulation. The liquid organic sunscreens that are commonly used are octyl-methoxy cinnamate (OMC) and octyl salicylate (OS).
(§3) Solubility/Solvency Tables IVA and IVB show the solubility and concentrations of the sunscreen ingredient in the novel esters of the invention compared to their precursor raw materials (non-benzoate esters).

[4] = physical properties of benzoate esters compared to precursors, Table II; assay type: physicochemical; details: for S.G. (specific gravity): 25° C.; for VISCOSITY: Brookfield Viscometer, Spindle # 1, 10 rpm
Text: Absence of odor is an important factor in consumer acceptance of cosmetic and toiletry products.

[5] = viscosity readings of Red No. 21 dispersions, Table VI B; assay type: physicochemical; details: for Viscosity reading of dispersion: Brookfield LVT-D @ 12 RPM, Red No. 21 35%
[6] = viscosity readings of titanium dioxide dispersions, Table VI B; assay type: physicochemical; details: for Viscosity reading of dispersion: Brookfield LVT-D @ 12 RPM, TiO2 50%
[7] = sunscreen solubility: Benzophenone-3, Table IV A; assay type: physicochemical
Text: as §2, §3

[8] = Hagman readings (particle size), Red No. 21 dispersion, Table VI A; assay type: physicochemical; details: Red No. 21 35%
Experimental: as §1

[9] = organoleptic evaluation of tactile characteristics on the forearm, Table VII; assay type: in vivo, individuals; details: rating, 1 = Worst 5 = Best
Experimental: The tactile characteristics of the novel benzoate esters of the invention were determined by applying the appropriate material, neat or as a dilution with another emollient ester, lanolin or […]. The properties were evaluated organoleptically after application to the interior surface of the forearm.

[10] = Gardnor scale
[11] = in specific ratios
Text: The aforedescribed benzoate esters have unique properties that make them particularly suited for use as emollient carriers for cosmetic ingredients. […] Parsol® is a registered trademark of Givaudan Corp. of Clifon, N.J.

[12] = refractive index of benzoate esters compared to precursors, Table V; assay type: physicochemical; details: 25° C.
[13] = 23° C., 10 gms sunscreen in 100 gms mixture
[14] = 23° C., 15 gms sunscreen in 100 gms mixture
[15] = 30° C., 10 gms sunscreen in 100 gms mixture
[16] = 30° C., 15 gms sunscreen in 100 gms mixture

Structure (SMILES): CCCCCCCCCCCCCCCCOC(=O)CCCCCCCC=CCC(CCCCCC)OC(=O)c1ccccc1 (stereo not drawn) [BCR, benzoic acid ester of cetyl-ricinoleate]
- Hagman reading (particle size) ([1]; pass 1): ≤ 53 μm
- Hagman reading (particle size) ([1]; pass 2): ≤ 50 μm
- Hagman reading (particle size) ([1]; pass 3): ≤ 46 μm
- Hagman reading (particle size) ([1]; pass 4): ≤ 33 μm
- Hagman reading (particle size) ([1]; pass 5): ≤ 30 μm
- Hagman reading (particle size) ([1]; pass 6): ≤ 27 μm
- Hagman reading (particle size) ([2]; pass 1): ≤ 30 μm
- Hagman reading (particle size) ([2]; pass 2): ≤ 30 μm
- Hagman reading (particle size) ([2]; pass 3): ≤ 21 μm
- Hagman reading (particle size) ([2]; pass 4): ≤ 18 μm
- Hagman reading (particle size) ([2]; pass 5): ≤ 10 μm
- Hagman reading (particle size) ([2]; pass 6): ≤ 10 μm
- particle size reduction vs precursor CR (in words) ([2]; third pass and onwards): better reduction of particle size
- Sunscreen solubility (Parsol 1789) [3, 13]: +
- Sunscreen solubility (Parsol 1789) [3, 14]: +
- Sunscreen solubility (Parsol 1789) [3, 15]: +
- Sunscreen solubility (Parsol 1789) [3, 16]: +
- S.G. (specific gravity) [4]: 0.915
- VISCOSITY [4]: 80 cps
- viscosity of Red No. 21 dispersion (in words) [5]: excellent low viscosity dispersion
- Viscosity reading of dispersion ([5]; pass 1): 4602 cps
- Viscosity reading of dispersion ([5]; pass 2): 4368 cps
- Viscosity reading of dispersion ([5]; pass 3): 4212 cps
- Viscosity reading of dispersion ([5]; pass 4): 4134 cps
- Viscosity reading of dispersion ([5]; pass 5): 4290 cps
- Viscosity reading of dispersion ([5]; pass 6): 4368 cps
- viscosity of TiO2 dispersions (in words) [6]: much lower viscosity
- Viscosity reading of dispersion ([6]; pass 1): 1794 cps
- Viscosity reading of dispersion ([6]; pass 2): 1872 cps
- Viscosity reading of dispersion ([6]; pass 3): 2028 cps
- Viscosity reading of dispersion ([6]; pass 4): 2028 cps
- Viscosity reading of dispersion ([6]; pass 5): 2028 cps
- Viscosity reading of dispersion ([6]; pass 6): 1950 cps
- Sunscreen solubility (Benzophenone-3) [7, 13]: +
- Sunscreen solubility (Benzophenone-3) [7, 14]: +
- Sunscreen solubility (Benzophenone-3) [7, 15]: +
- Sunscreen solubility (Benzophenone-3) [7, 16]: +
- Hagman reading (particle size) ([8]; pass 1): ≤ 34 μm
- Hagman reading (particle size) ([8]; pass 2): ≤ 26 μm
- Hagman reading (particle size) ([8]; pass 3): ≤ 20 μm
- Hagman reading (particle size) ([8]; pass 4): ≤ 12 μm
- Hagman reading (particle size) ([8]; pass 5): ≤ 8 μm
- Hagman reading (particle size) ([8]; pass 6): ≤ 6 μm
- GREASINESS/OILINESS [9]: 4
- OVERALL TACTILITY [9]: 4
- SPREADABILITY [9]: 3
- TACK [9]: 3

Structure (SMILES): CCCCCCCCCCCCCCCCOC(=O)CCCCCCCC=CCC(CCCCCC)OC(=O)c1ccccc1 (stereo not drawn) [Example 8, Benzoate Ester of Cetyl Ricinoleate]
- Color [10]: 4

Structure (SMILES): CCCCCCCCCCCCCCCCOC(=O)CCCCCCCC=CCC(CCCCCC)OC(=O)c1ccccc1 (stereo not drawn) [Example 9, Benzoate Ester of Cetyl Ricinoleate]
- Color [10]: 4

Structure (SMILES): CCCCCCC(CCCCCCCCCCC(=O)OCC(COC(=O)CCCCCCCCCCC(CCCCCC)OC(=O)c1ccccc1)OC(=O)CCCCCCCCCCC(CCCCCC)OC(=O)c1ccccc1)OC(=O)c1ccccc1 (stereo not drawn) [Example 7, Castor Wax MP-80 Benzoate]
- Color [10]: 3

Structure (SMILES): CCCCCCC(CC=CCCCCCCCC(=O)OCC(COC(=O)CCCCCCCC=CCC(CCCCCC)OC(=O)c1ccccc1)OC(=O)CCCCCCCC=CCC(CCCCCC)OC(=O)c1ccccc1)OC(=O)c1ccccc1 (stereo not drawn) [BCO, Benzoic acid ester of glyceryl tri-ricinoleate]
- Hagman reading (particle size) ([1]; pass 1): ≤ 49 μm
- Hagman reading (particle size) ([1]; pass 2): ≤ 45 μm
- Hagman reading (particle size) ([1]; pass 3): ≤ 42 μm
- Hagman reading (particle size) ([1]; pass 4): ≤ 40 μm
- Hagman reading (particle size) ([1]; pass 5): ≤ 36 μm
- Hagman reading (particle size) ([1]; pass 6): ≤ 33 μm
- Hagman reading (particle size) ([2]; pass 1): ≤ 30 μm
- Hagman reading (particle size) ([2]; pass 2): ≤ 26 μm
- Hagman reading (particle size) ([2]; pass 3): ≤ 20 μm
- Hagman reading (particle size) ([2]; pass 4): ≤ 10 μm
- Hagman reading (particle size) ([2]; pass 5): ≤ 10 μm
- Hagman reading (particle size) ([2]; pass 6): ≤ 8 μm
- Sunscreen solubility (Parsol 1789) [3, 13]: +
- Sunscreen solubility (Parsol 1789) ([3]; 30° C., 5 gms sunscreen in 100 gms mixture): +
- Sunscreen solubility (Parsol 1789) [3, 15]: +
- Sunscreen solubility (Parsol 1789) [3, 16]: +
- S.G. (specific gravity) [4]: 0.982
- VISCOSITY [4]: 937 cps
- Viscosity reading of dispersion ([5]; pass 1): > 15,600 cps
- Viscosity reading of dispersion ([5]; pass 2): > 15,600 cps
- Viscosity reading of dispersion ([5]; pass 3): > 15,600 cps
- Viscosity reading of dispersion ([5]; pass 4): > 15,600 cps
- Viscosity reading of dispersion ([5]; pass 5): > 15,600 cps
- Viscosity reading of dispersion ([5]; pass 6): > 15,600 cps
- viscosity of TiO2 dispersions (in words) [6]: much lower viscosity
- Viscosity reading of dispersion ([6]; pass 1): 6552 cps
- Viscosity reading of dispersion ([6]; pass 2): 7176 cps
- Viscosity reading of dispersion ([6]; pass 3): 7800 cps
- Viscosity reading of dispersion ([6]; pass 4): 7332 cps
- Viscosity reading of dispersion ([6]; pass 5): 7176 cps
- Viscosity reading of dispersion ([6]; pass 6): 6786 cps
- Sunscreen solubility (Benzophenone-3) [7, 13]: +
- Sunscreen solubility (Benzophenone-3) [7, 14]: +
- Sunscreen solubility (Benzophenone-3) [7, 15]: +
- Sunscreen solubility (Benzophenone-3) [7, 16]: +
- Hagman reading (particle size) ([8]; pass 1): ≤ 39 μm
- Hagman reading (particle size) ([8]; pass 2): ≤ 30 μm
- Hagman reading (particle size) ([8]; pass 3): ≤ 26 μm
- Hagman reading (particle size) ([8]; pass 4): ≤ 14 μm
- Hagman reading (particle size) ([8]; pass 5): ≤ 12 μm
- Hagman reading (particle size) ([8]; pass 6): ≤ 10 μm
- GREASINESS/OILINESS [9]: 4
- OVERALL TACTILITY [9]: 3
- SPREADABILITY [9]: 4
- TACK [9]: 2
- miscibility with Parsol 1789 [11]: miscible
- miscibility with benzophenone-3 [11]: miscible

Structure (SMILES): CCCCCCCCCCCCCCCCOC(=O)CCCCCCC/C=C\C[C@H](O)CCCCCC [CR, Cetyl Ricinoleate, reference compound]
- Hagman reading (particle size) ([1]; pass 1): ≤ 49 μm
- Hagman reading (particle size) ([1]; pass 2): ≤ 48 μm
- Hagman reading (particle size) ([1]; pass 3): ≤ 40 μm
- Hagman reading (particle size) ([1]; pass 4): ≤ 38 μm
- Hagman reading (particle size) ([1]; pass 5): ≤ 33 μm
- Hagman reading (particle size) ([1]; pass 6): ≤ 30 μm
- Refractive Index, Typical [12]: 1.4580
- Hagman reading (particle size) ([2]; pass 1): ≤ 93 μm
- Hagman reading (particle size) ([2]; pass 2): ≤ 80 μm
- Hagman reading (particle size) ([2]; pass 3): ≤ 80 μm
- Hagman reading (particle size) ([2]; pass 4): ≤ 76 μm
- Hagman reading (particle size) ([2]; pass 5): ≤ 50 μm
- Hagman reading (particle size) ([2]; pass 6): ≤ 43 μm
- Sunscreen solubility (Parsol 1789) [3, 13]: +
- Sunscreen solubility (Parsol 1789) [3, 15]: +
- Sunscreen solubility (Parsol 1789) [3, 16]: +
- Color [4]: light yellow
- S.G. (specific gravity) [4]: 0.874
- VISCOSITY [4]: 65 cps
- REFRACTIVE INDEX ([4]; Table II): 1.4580
- Viscosity reading of dispersion ([5]; pass 1): Out of instrument range
- Viscosity reading of dispersion ([5]; pass 2): Out of instrument range
- Viscosity reading of dispersion ([5]; pass 3): Out of instrument range
- Viscosity reading of dispersion ([5]; pass 4): Out of instrument range
- Viscosity reading of dispersion ([5]; pass 5): Out of instrument range
- Viscosity reading of dispersion ([5]; pass 6): Out of instrument range
- Viscosity reading of dispersion ([6]; pass 1): Out of instrument range
- Viscosity reading of dispersion ([6]; pass 2): Out of instrument range
- Viscosity reading of dispersion ([6]; pass 3): Out of instrument range
- Viscosity reading of dispersion ([6]; pass 4): Out of instrument range
- Viscosity reading of dispersion ([6]; pass 5): Out of instrument range
- Viscosity reading of dispersion ([6]; pass 6): Out of instrument range
- Sunscreen solubility (Benzophenone-3) [7, 13]: +
- Sunscreen solubility (Benzophenone-3) [7, 15]: +
- Sunscreen solubility (Benzophenone-3) [7, 16]: +
- Hagman reading (particle size) ([8]; pass 1): ≤ 39 μm
- Hagman reading (particle size) ([8]; pass 2): ≤ 36 μm
- Hagman reading (particle size) ([8]; pass 3): ≤ 30 μm
- Hagman reading (particle size) ([8]; pass 4): ≤ 26 μm
- Hagman reading (particle size) ([8]; pass 5): ≤ 18 μm
- Hagman reading (particle size) ([8]; pass 6): ≤ 14 μm

Structure (SMILES): CCCCCCCCCCCCCCCCOC(=O)CCCCCCCC=CCC(CCCCCC)OC(=O)c1ccccc1 (stereo not drawn) [Example 10, Benzoate Ester of Cetyl Ricinoleate]
- Color [10]: 4

Structure (SMILES): CCCCCCC(CCCCCCCCCCC(=O)OCC(COC(=O)CCCCCCCCCCC(CCCCCC)OC(=O)c1ccccc1)OC(=O)CCCCCCCCCCC(CCCCCC)OC(=O)c1ccccc1)OC(=O)c1ccccc1 (stereo not drawn) [Example 6, Castor Wax MP-80 Benzoate]
- Color [10]: 3

Structure (SMILES): CCCCCCCCCCCCCCCCOC(=O)CCCCCCCC=CCC(CCCCCC)OC(=O)c1ccccc1 (stereo not drawn) [Example 11, Benzoate Ester of Cetyl Ricinoleate]
- Color [10]: 4
